Species on record: Rattus norvegicus
Assay type: toxicity, organism-based, Sprague-Dawley
Conditions: in vivo, po, route oral GAVAGE, […]; for ABSOLUTE EOSINOPHIL / ABSOLUTE LYMPHOCYTE / ABSOLUTE MONOCYTE / ABSOLUTE SEGMENTED NEUTROPHIL / BASOPHIL / EOSINOPHIL / ERYTHROCYTE COUNT / HEMATOCRIT / HEMOGLOBIN / LEUKOCYTE COUNT / LYMPHOCYTE / MEAN CORPUSCULAR HEMOGLOBIN / MEAN CORPUSCULAR HEMOGLOBIN CONCENTRATION / MEAN CORPUSCULAR VOLUME / MONOCYTE / NEUTROPHIL / NUCLEATED RED BLOOD CELLS / PLATELET COUNT: tissue Blood; for ALANINE AMINOTRANSFERASE / ALBUMIN / ALKALINE PHOSPHATASE / ASPARTATE AMINOTRANSFERASE / BLOOD UREA NITROGEN / CARBON DIOXIDE / CHLORIDE / CHOLESTEROL / CREATINE PHOSPHOKINASE / CREATININE / GLUCOSE / LACTATE DEHYDROGENASE / LIPASE / PHOSPHORUS / POTASSIUM / SODIUM / TOTAL BILIRUBIN / TOTAL PROTEIN / URIC ACID: tissue Plasma
[1] = 0 mg/kg, 6 h, vehicle control, dose level Control, time 0.25 day
[2] = 0 mg/kg, 24 h, vehicle control, dose level Control, time 1 day
[3] = 130 mg/kg, 6 h, dose level Low, time 0.25 day

Description: DrugMatrix - Regimen: Single

Q: What does the source list for `CCOC(=O)C(C)(C)Oc1ccc(Cl)cc1` [CLOFIBRATE]?
A: ABSOLUTE EOSINOPHIL [1]: 0 CELLS/uL; ABSOLUTE LYMPHOCYTE [1]: 8631 CELLS/uL; ABSOLUTE MONOCYTE [1]: 171.17 CELLS/uL; ABSOLUTE SEGMENTED NEUTROPHIL [1]: 1214.5 CELLS/uL; BASOPHIL [1]: 0%; EOSINOPHIL [1]: 0%; ERYTHROCYTE COUNT [1]: 5.42 x10E6/uL; HEMATOCRIT [1]: 34.7%; HEMOGLOBIN [1]: 13.67 G/DL; LEUKOCYTE COUNT [1]: 10.02 x10E3/uL; LYMPHOCYTE [1]: 86.17%; MEAN CORPUSCULAR HEMOGLOBIN [1]: 25.27 pg; MEAN CORPUSCULAR HEMOGLOBIN CONCENTRATION [1]: 39.42 G/DL; MEAN CORPUSCULAR VOLUME [1]: 64.12 fL; MONOCYTE [1]: 1.67%; NEUTROPHIL [1]: 12.17%; NUCLEATED RED BLOOD CELLS [1]: 0 /100WBC; PLATELET COUNT [1]: 1050 x10E3/uL; ALANINE AMINOTRANSFERASE [1]: 61 u/L; ALBUMIN [1]: 4.67 G/DL; ALKALINE PHOSPHATASE [1]: 312.5 u/L; ASPARTATE AMINOTRANSFERASE [1]: 117.5 u/L; BLOOD UREA NITROGEN [1]: 8.67 mg/dL; CARBON DIOXIDE [1]: 26.33 mmol/L; CHLORIDE [1]: 100.5 MEQ/L; CHOLESTEROL [1]: 72 mg/dL; CREATINE PHOSPHOKINASE [1]: 283.33 u/L; CREATININE [1]: 0.28 mg/dL; GLUCOSE [1]: 172 mg/dL; LACTATE DEHYDROGENASE [1]: 95.33 u/L; LIPASE [1]: 10.17 u/L; PHOSPHORUS [1]: 9.9 mg/dL; POTASSIUM [1]: 5.75 MEQ/L; SODIUM [1]: 142.4 MEQ/L; TOTAL BILIRUBIN [1]: 0.3 mg/dL; TOTAL PROTEIN [1]: 5.43 G/DL; URIC ACID [1]: 0.73 mg/dL; ABSOLUTE EOSINOPHIL [2]: 90.83 CELLS/uL; ABSOLUTE LYMPHOCYTE [2]: 14725.17 CELLS/uL; ABSOLUTE MONOCYTE [2]: 220 CELLS/uL; ABSOLUTE SEGMENTED NEUTROPHIL [2]: 1080.67 CELLS/uL; BASOPHIL [2]: 0%; EOSINOPHIL [2]: 0.67%; ERYTHROCYTE COUNT [2]: 5.3 x10E6/uL; HEMATOCRIT [2]: 33.4%; HEMOGLOBIN [2]: 13.4 G/DL; LEUKOCYTE COUNT [2]: 16.12 x10E3/uL; LYMPHOCYTE [2]: 91.17%; MEAN CORPUSCULAR HEMOGLOBIN [2]: 25.3 pg; MEAN CORPUSCULAR HEMOGLOBIN CONCENTRATION [2]: 40.12 G/DL; MEAN CORPUSCULAR VOLUME [2]: 63.05 fL; MONOCYTE [2]: 1.5%; NEUTROPHIL [2]: 6.67%; NUCLEATED RED BLOOD CELLS [2]: 0 /100WBC; PLATELET COUNT [2]: 1062 x10E3/uL; ALANINE AMINOTRANSFERASE [2]: 69 u/L; ALBUMIN [2]: 4.33 G/DL; ALKALINE PHOSPHATASE [2]: 269 u/L; ASPARTATE AMINOTRANSFERASE [2]: 83.67 u/L; BLOOD UREA NITROGEN [2]: 14 mg/dL; CARBON DIOXIDE [2]: 29 mmol/L; CHLORIDE [2]: 100.83 MEQ/L; CHOLESTEROL [2]: 66.67 mg/dL; CREATINE PHOSPHOKINASE [2]: 355 u/L; CREATININE [2]: 0.18 mg/dL; GLUCOSE [2]: 161.33 mg/dL; LACTATE DEHYDROGENASE [2]: 123.33 u/L; LIPASE [2]: 10.67 u/L; PHOSPHORUS [2]: 8.83 mg/dL; POTASSIUM [2]: 6.06 MEQ/L; SODIUM [2]: 142.45 MEQ/L; TOTAL BILIRUBIN [2]: 0.2 mg/dL; TOTAL PROTEIN [2]: 5.72 G/DL; URIC ACID [2]: 1.27 mg/dL; ABSOLUTE EOSINOPHIL [3]: 53.33 CELLS/uL; ABSOLUTE LYMPHOCYTE [3]: 12668.17 CELLS/uL; ABSOLUTE MONOCYTE [3]: 233.17 CELLS/uL; ABSOLUTE SEGMENTED NEUTROPHIL [3]: 1278.67 CELLS/uL; BASOPHIL [3]: 0%; EOSINOPHIL [3]: 0.33%; ERYTHROCYTE COUNT [3]: 5.56 x10E6/uL; HEMATOCRIT [3]: 34.18%; HEMOGLOBIN [3]: 13.43 G/DL; LEUKOCYTE COUNT [3]: 14.23 x10E3/uL; LYMPHOCYTE [3]: 88.83%; MEAN CORPUSCULAR HEMOGLOBIN [3]: 24.17 pg; MEAN CORPUSCULAR HEMOGLOBIN CONCENTRATION [3]: 39.33 G/DL; MEAN CORPUSCULAR VOLUME [3]: 61.53 fL; MONOCYTE [3]: 1.67%; NEUTROPHIL [3]: 9.17%; NUCLEATED RED BLOOD CELLS [3]: 0 /100WBC; PLATELET COUNT [3]: 1136.67 x10E3/uL; ALANINE AMINOTRANSFERASE [3]: 40.17 u/L; ALBUMIN [3]: 4.38 G/DL; ALKALINE PHOSPHATASE [3]: 384.83 u/L; ASPARTATE AMINOTRANSFERASE [3]: 76.67 u/L; BLOOD UREA NITROGEN [3]: 7.4 mg/dL; CARBON DIOXIDE [3]: 25 mmol/L; CHLORIDE [3]: 101.4 MEQ/L; CHOLESTEROL [3]: 63.33 mg/dL; CREATINE PHOSPHOKINASE [3]: 249.67 u/L; CREATININE [3]: 0.36 mg/dL; GLUCOSE [3]: 139.83 mg/dL; LACTATE DEHYDROGENASE [3]: 146.17 u/L; LIPASE [3]: 10.2 u/L; PHOSPHORUS [3]: 10.1 mg/dL; POTASSIUM [3]: 5.97 MEQ/L; SODIUM [3]: 142.94 MEQ/L; TOTAL BILIRUBIN [3]: 0.38 mg/dL; TOTAL PROTEIN [3]: 5.73 G/DL; URIC ACID [3]: 0.96 mg/dL

From ChEMBL document CHEMBL3885881, “DrugMatrix”
